Assay results reported in US12662714B2, “Method for separation of adjacent lanthanide elements” (UT-Battelle, LLC, priority 2022, dated 2026).

Assays:
[1] = Solvent extraction of Lns, distribution ratio of La; conditions: 1 M HNO3, 1 h
Procedure: (§1) General procedure: a 500 microliter (μL) aqueous phase consisting of 7 mM Ln(III) (0.5 mM of each Ln(III)) in 1 M HNO3 without or with aqBLPhen 1 (3, 13, or 25 mM) was contacted with an equal volume of organic phase containing 0.1 M DGA (3, 4, or 5). The two phases were contacted in a 1:1 ratio of organic/aqueous by end-over-end rotation in individual 1.8 mL capacity snap-top Eppendorf tubes using a rotating wheel in an airbox set at 25.5±0.5° C. Contacts were performed in triplicate with a contact time of 1 hour. The samples were centrifuged at 1811 g for 2 min at room temperature to separate the phases. Each triplicate was then sub-sampled, using a 300 μL aliquot of the aqueous phase transferred to individual polypropylene tubes and diluted with 2% HNO3 for analysis using ICP-MS or ICP-OES. Two samples of the initial lanthanide solution were similarly prepared.
(§2) The ability of 1 and DGA to separate Lns was evaluated using a two-component, immiscible solvent system: nitric acid (aqueous phase containing 1) and n-dodecane with 10 vol % 1-octanol (oil phase containing DGA). The amount of Ln partitioned from the aqueous phase into the oil phase was measured using inductively coupled plasma optical emission spectroscopy or mass spectrometry. The Ln concentration in each phase was then used to calculate the separation efficiency.
(§3) The percentage of Lns in the aqueous and the oil phases is presented in FIGS. 1a-1i. for each DGA in the absence and presence of the aqueous complexant 1 (E=([Ln1]/[Ln1]0)×100%). The distribution ratios (i.e., D=[Ln1]org/[Ln1]aq) for select Lns are listed in Table 1, which also include selectivities (i.e., SFLn1/Ln2=DLn1/DLn2), for several Ln pairs. An efficient separation of Lns was achieved when DLn1>1 and DLn2<1 or ELn1>50% and ELn2<50%. […] Neither of the three DGAs can separate Lns in a single extraction stage.

[2] = Solvent extraction of Lns, distribution ratio of Nd; conditions: 0.1 M DGA, 1 M HNO3, 1 h
Procedure: as §1, §2, §3

[3] = Solvent extraction of Lns, distribution ratio of Sm; conditions: 0.1 M DGA, 1 M HNO3, 1 h
Procedure: as §1, §2, §3

[4] = Solvent extraction of Lns, distribution ratio of Gd; conditions: 0.1 M DGA, 1 M HNO3, 1 h
Procedure: as §1, §2, §3

[5] = Solvent extraction of Lns, separation factor Nd/Pr; conditions: 0.1 M DGA, 1 M HNO3, 1 h
Procedure: as §1, §2, §3

[6] = Solvent extraction of Lns, separation factor Sm/Nd; conditions: 0.1 M DGA, 1 M HNO3, 1 h
Procedure: as §1, §2, §3

[7] = Solvent extraction of Lns, separation factor Tb/Gd; conditions: 0.1 M DGA, 1 M HNO3, 1 h
Procedure: as §1, §2, §3

[8] = Solvent extraction of Lns, separation factor Dy/Nd; conditions: 0.1 M DGA, 1 M HNO3, 1 h
Procedure: as §1, §2, §3

[9] = Solvent extraction of Lns, separation factor Gd/La; conditions: for SFGd/La separation factor: 0.1 M DGA, 1 M HNO3, 1 h
Procedure: as §1, §2, §3

[10] = Extraction of 14 Lns from aqueous phase into oil phase; conditions: 0.1 M DGA alone; 14 Lns 0.5 mM each; 1 M HNO3
Procedure: as §1, §2, §3

[11] = Optimized separation of adjacent Ln pair Nd-Pr with 1 and Ligand 3
Procedure: The synergistic use of 1 and Ligand 3 was further optimized to maximize the separation of one adjacent Ln pair Nd—Pr using the percentage of Ln extracted as a guide. The separation of Nd and Pr reached equilibrium in less than 1 hour, and the D values for both increased at higher HNO3 and Ligand 3 concentrations (FIGS. 3b and 3c). Ligand 3, being a neutral ligand, requires co-extraction of counterions (i.e., three NO3^−) with Ln; thus, the extraction of Lns with DGA is favored at high nitrate concentration, and the process is reversed at low anion concentration.
The highest selectivity of 4.9±0.2 for Nd—Pr pair was obtained when separating 2.5 mM Nd and Pr, each using 13 mM of 1 in 1 M HNO3 with 0.1 M of Ligand 3 in the oil phase and equilibrating for 30 min at 25.5° C. Next, the recovery of Nd and Pr from each phase after extraction using the 1-Ligand 3-HNO3 system was investigated. […] The charged ligand (CO3^2−) outcompetes neutral ligand 1 in complexing with Ln ions; furthermore, the thermodynamics of the Ln2(CO3)3 formation is highly favorable due to high crystal lattice energy of the salt. The identity of the precipitate was confirmed using Fourier-transform infrared spectroscopy (FTIR), and the results are in good agreement with commercially available Pr and Nd carbonate salts. Ligand 1 remains in the aqueous solution that can be further recycled in the lanthanide separation process.

[12] = Solvent extraction of Lns, distribution ratio of La; conditions: 13 mM Ligand 2 used instead of ligand 1; 0.1 M DGA; 1 M HNO3; 1 h
[13] = Solvent extraction of Lns, distribution ratio of Nd; conditions: 13 mM Ligand 2 used instead of ligand 1; 0.1 M DGA; 1 M HNO3; 1 h
[14] = Solvent extraction of Lns, distribution ratio of Sm; conditions: 13 mM Ligand 2 used instead of ligand 1; 0.1 M DGA; 1 M HNO3; 1 h
[15] = Solvent extraction of Lns, distribution ratio of Gd; conditions: 13 mM Ligand 2 used instead of ligand 1; 0.1 M DGA; 1 M HNO3; 1 h
[16] = Solvent extraction of Lns, separation factor Nd/Pr; conditions: 13 mM Ligand 2 used instead of ligand 1; 0.1 M DGA; 1 M HNO3; 1 h
[17] = Solvent extraction of Lns, separation factor Sm/Nd; conditions: 13 mM Ligand 2 used instead of ligand 1; 0.1 M DGA; 1 M HNO3; 1 h
[18] = Solvent extraction of Lns, separation factor Dy/Nd; conditions: 13 mM Ligand 2 used instead of ligand 1; 0.1 M DGA; 1 M HNO3; 1 h
[19] = Solvent extraction of Lns, separation factor Gd/La; conditions: 13 mM Ligand 2 used instead of ligand 1; 0.1 M DGA; 1 M HNO3; 1 h

SMILES: CCCCCCCCN(C)C(=O)COCC(=O)N(C)CCCCCCCC [Ligand 3, N,N′-dimethyl-N,N′-di(n-octyl)diglycolamide]
- DLa distribution ratio ([1]; [1] 0 mM, 0.1 M DGA in n-dodecane with 10 vol % 1-octanol, 0.5 mM each Ln): 71
- DLa distribution ratio ([1]; [1] 3 mM, 0.1 M DGA): 0.59
- DLa distribution ratio ([1]; [1] 13 mM, 0.1 M DGA): 0.28
- DLa distribution ratio ([1]; [1] 25 mM, 0.1 M DGA): 0.23
- DNd distribution ratio ([2]; [1] 0 mM): 558
- DNd distribution ratio ([2]; [1] 3 mM): 11.0
- DNd distribution ratio ([2]; [1] 13 mM): 10.7
- DNd distribution ratio ([2]; [1] 25 mM): 2.34
- DSm distribution ratio ([3]; [1] 0 mM): 1795
- DSm distribution ratio ([3]; [1] 3 mM): 222
- DSm distribution ratio ([3]; [1] 13 mM): 68.1
- DSm distribution ratio ([3]; [1] 25 mM): 42.2
- DGd distribution ratio ([4]; [1] 0 mM): 2531
- DGd distribution ratio ([4]; [1] 3 mM): 1192
- DGd distribution ratio ([4]; [1] 13 mM): 552
- DGd distribution ratio ([4]; [1] 25 mM): 346
- SFNd/Pr separation factor ([5]; [1] 0 mM): 2.1
- SFNd/Pr separation factor ([5]; [1] 3 mM): 4.0
- SFNd/Pr separation factor ([5]; [1] 13 mM): 4.2
- SFNd/Pr separation factor ([5]; [1] 25 mM): 3.2
- SFSm/Nd separation factor ([6]; [1] 0 mM): 3.2
- SFSm/Nd separation factor ([6]; [1] 3 mM): 20
- SFSm/Nd separation factor ([6]; [1] 13 mM): 6.4
- SFSm/Nd separation factor ([6]; [1] 25 mM): 18
- SFTb/Gd separation factor ([7]; 13 mM Ligand 2 used instead of ligand 1): 1.6
- SFTb/Gd separation factor ([7]; [1] 0 mM): 1.1
- SFTb/Gd separation factor ([7]; [1] 3 mM): 2.0
- SFTb/Gd separation factor ([7]; [1] 13 mM): 3.0
- SFTb/Gd separation factor ([7]; [1] 25 mM): 3.0
- SFDy/Nd separation factor ([8]; [1] 0 mM): 4.7
- SFDy/Nd separation factor ([8]; [1] 3 mM): 352
- SFDy/Nd separation factor ([8]; [1] 13 mM): 451
- SFDy/Nd separation factor ([8]; [1] 25 mM): 1313
- SFGd/La separation factor ([9]; [1] 0 mM): 36
- SFGd/La separation factor ([9]; [1] 3 mM): 2010
- SFGd/La separation factor ([9]; [1] 13 mM): 1992
- SFGd/La separation factor ([9]; [1] 25 mM): 1512
- times higher selectivity for Gd over La than the TDdDGA-DOODA(C2) system ([9]; combination of 1 and Ligand 3): ~2 times
- times higher selectivity for Gd over La than the TODGA-DOODA(C2) system ([9]; combination of 1 and Ligand 3): 20 times
- extraction of Lns from the aqueous phase into the oil phase [10]: nearly quantitatively extracted all Lns
- highest selectivity for Nd-Pr pair ([11]; 2.5 mM Nd and Pr each, 13 mM of 1 in 1 M HNO3, 0.1 M Ligand 3 in oil phase, 30 min, 25.5° C.): 4.9±0.2
- time for the separation of Nd and Pr to reach equilibrium ([11]; 1 and Ligand 3): less than 1 hour
- recovery of Nd and Pr from the spent oil phase ([11]; three consecutive contacts with an equal volume of deionized water): Near-quantitative recovery
- DLa distribution ratio [12]: 2.65
- DNd distribution ratio [13]: 21.4
- DSm distribution ratio [14]: 163
- DGd distribution ratio [15]: 360
- SFNd/Pr separation factor [16]: 2.3
- SFSm/Nd separation factor [17]: 7.6
- SFDy/Nd separation factor [18]: 60
- SFGd/La separation factor [19]: 136
